These results are taken from PubChem BioAssay (NCI).

Structures are written as SMILES. Where “and” joins values, the source holds several entries; their conditions need not be identical. Equal entries are not always repeated.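 Test compounds were applied to cells in 96-well plates for 48 hours at 5 doses. GI50 = concentration required for 50% inhibition of growth. Definition used: TGI = concentration required for complete inhibition of growth.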 A value given as a limit tells only on which side of the number the result lay.

For the assay, the system named is MDA-MB-468 breast. Briefly: NCI tumour cell line growth inhibition, 48 h.

As for `NCCCNc1nc2ccccc2c2c(=O)c3cccc(F)c3sc12`, the GI50 is 1620 nM and the TGI turned out to be 3240 nM.
Taken in the same sequence, the figures for `CCN(Cc1cc(F)cc(F)c1)c1ccc(CO)c(Cl)c1` were 18.7 nM and 50.5 nM.
Taken in the same sequence, the figures for `O=C1C(=O)/C(=C/c2ccccc2)CCCCCC/C1=C/c1ccccc1` were 3620 nM and 17700 nM.
For the compound `COc1ccc(-c2cc(C(=O)N3N=C(c4ccc(N)cc4)CC3c3ccc(Cl)cc3)c3ccccc3n2)cc1` (stereo unspecified), the GI50 is 2950 nM and the TGI was greater than 100000 nM.
`O=C(c1ccc(Oc2ccccc2)cc1Cl)c1c[nH]c2ncnc(N[C@@H]3CC[C@@H](CO)OC3)c12`: the GI50 is 1010 nM and the TGI was determined as 3730 nM.
For the compound `COc1cc(/C=C/c2cc(/C=C/c3ccc(O)c(OC)c3)n(C(=O)Cc3ccccc3)n2)ccc1O`, the GI50 is 1170 nM and the TGI is 4580 nM.
With `COC1=C(C)C(=O)N2[C@@H]1[C@H](c1ccccc1)OC21C=CC(=O)C=C1`, the GI50 was 2540 nM and the TGI turned out to be 9240 nM.
Take `COc1cc(C=C2c3ccccc3C(=O)c3ccccc32)ccc1OCCCCOc1cc2c(cc1OC)C(=O)N1CCCC1C=N2` (stereo unspecified): the GI50 was 287 nM and the TGI was 1190 nM.
Take `CCOC(=O)c1cc(C(=O)c2cc(OC)cc(OC)c2)n2nc(C)ccc12`: the GI50 was 297 nM and the TGI is greater than 100000 nM.
For the compound `CN(C)CCCNc1nc2ccccc2c2c(=O)c3cc(F)ccc3sc12`, the GI50 is 675 nM and the TGI amounted to 2160 nM.
In the case of `O=C1NC(=O)/C(=C/c2ccc3ncccc3c2)S1`, the GI50 is 9280 nM and the TGI is greater than 25000 nM.
Consider `COc1ccc(/C=C/C(=O)c2c(O)c(C)c(O)c3c2OC2=CC(O)=C(C(C)=O)C(=O)[C@]23C)cc1`, for which the GI50 is 1350 nM and the TGI was determined as 5010 nM.
As to `CO[C@@H](C)Cn1c(=O)n(C)c2cnc3ccc(-c4cncc(C(C)(C)O)c4)cc3c21`, the GI50 is 132 nM and 60.1 nM; the TGI was 661 nM and 472 nM.
In the case of `O=[N+]([O-])c1cc([N+](=O)[O-])c(NN=C(c2ccc(O)cc2)c2ccc(O)cc2)cc1Cl`, the GI50 was 247 nM and the TGI is 550 nM.
Turning to `O=C(/C=C/c1c(-c2ccccc2)[nH]c2ccccc12)S(=O)(=O)c1ccccc1`, the GI50 is 1980 nM and the TGI turned out to be 8750 nM.
Take `CCC(=O)OCC1OC(n2cnc3c(=S)nc(N)[nH]c32)C(OC(=O)CC)C1OC(=O)CC` (stereo unspecified): the GI50 is 1180 nM and the TGI was determined as 7450 nM.
Taken in the same sequence, the figures for `Fc1ccc(-c2cc3nc(C(Cl)Cl)nc(-c4cccs4)n3n2)cc1` were 219 nM and 666 nM.
Taken in the same sequence, the figures for `CCCCc1ccc(NS(=O)(=O)c2cc3c4c(c2)CCN4C(=O)CC3)cc1` were 4500 nM and 94200 nM.
On to `Oc1ccc(OCCOc2ccc(O)cc2)cc1`, for which the GI50 is 32700 nM and the TGI was greater than 100000 nM.
On to `COc1cc(/C=C/c2cc(/C=C/c3ccc(O)c(OC)c3)n(C(N)=O)n2)ccc1O`, for which the GI50 was 298 nM and the TGI worked out at 1520 nM.
Taken in the same sequence, the figures for `COc1cc(/C=C/[N+](=O)[O-])c([N+](=O)[O-])cc1OC` were 1020 nM and 2300 nM.
On to `COc1cc2c(Oc3ccc4[nH]c(C)cc4c3F)ncnc2cc1OCCCN1CCCC1`, for which the GI50 was 1320 nM and the TGI was 3060 nM.
On to `COc1cc(Nc2cc(O)c3c(=O)cc(-c4ccccc4)oc3c2)cc(OC)c1`, for which the GI50 is 279 nM.
Regarding `CCCCN1C=CCN(CCCC)C1`, the GI50 is 18600 nM and the TGI is 61300 nM.
For `Cc1ccc(N(CC(=O)Nc2ccc(S(=O)(=O)NC3CCN(C)CC3)cc2)S(=O)(=O)c2ccc(Cl)cc2)cc1`, the GI50 is 1910 nM and the TGI is 4000 nM.
For `COc1ccc([C@H]2[C@H](O)C(=O)N2c2cc(OC)c(OC)c(OC)c2)cc1`, the GI50 is less than 10 nM and the TGI is greater than 100000 nM.
`COc1cc(C2CC(c3ccc(SC)cc3)=NN2C(C)=O)cc(OC)c1OC` (stereo unspecified): the GI50 was 3710 nM and the TGI stood at 26200 nM.
Regarding `O=C1/C(=C/c2ccccc2[N+](=O)[O-])Oc2ccc(O)cc21`, the GI50 is 1810 nM and the TGI was found to be 3850 nM.
Taken in the same sequence, the figures for `Cn1c([N+](=O)[O-])cnc1/C=C1\Oc2ccc(Br)cc2C1=O` were 1590 nM and 4600 nM.
As to `CC(c1ccccc1)N1C(=O)CSC1=S` (stereo unspecified), the GI50 is 303 nM and the TGI is greater than 100000 nM.
Taken in the same sequence, the figures for `CO[C@H]1/C=C/[C@@](C)(O)/C=C/C(=O)O[C@H](C)[C@@H](C)CC/C=C/1C` were 8450 nM and 31000 nM.
For `N#Cc1cc(-c2ccnc(Nc3ccc(NC(=O)CCl)cc3)n2)ccc1N1CCCC1`, the GI50 was 3400 nM and the TGI was determined as 7130 nM.
For `Cn1cc(-c2csc(-c3c[nH]c4ccc(F)cc34)n2)c2cccnc21`, the GI50 is 1410 nM and the TGI came out at 5240 nM.
As to `COc1cc(C(=O)/C=C/c2c(-c3cccs3)nc3sccn23)cc(OC)c1OC`, the GI50 is 930 nM and the TGI stood at 2890 nM.
Turning to `COc1cc(Nc2ncc3c(C)nc(-c4cccc(C(F)(F)F)c4)n3n2)cc(OC)c1OC`, the GI50 is 2810 nM and the TGI came out at 5980 nM.
With `Cc1ccc(NC(=O)c2ccc(CN3CC[C@H](N(C)C)C3)c(C(F)(F)F)c2)cc1Nc1nccc(-c2cncnc2)n1`, the GI50 was 5050 nM and 7370 nM; the TGI is 18400 nM and > 10000 nM.
